The nature of data set [1]: Mono-oxidation of isobavachin by pooled HLM, enzyme kinetics. Type of data set: in vitro ADME, human.
For the next data set, the target named is T1, UGT2B4 (Homo sapiens, UniProt P06133).
T1 sequence (P06133 24-528): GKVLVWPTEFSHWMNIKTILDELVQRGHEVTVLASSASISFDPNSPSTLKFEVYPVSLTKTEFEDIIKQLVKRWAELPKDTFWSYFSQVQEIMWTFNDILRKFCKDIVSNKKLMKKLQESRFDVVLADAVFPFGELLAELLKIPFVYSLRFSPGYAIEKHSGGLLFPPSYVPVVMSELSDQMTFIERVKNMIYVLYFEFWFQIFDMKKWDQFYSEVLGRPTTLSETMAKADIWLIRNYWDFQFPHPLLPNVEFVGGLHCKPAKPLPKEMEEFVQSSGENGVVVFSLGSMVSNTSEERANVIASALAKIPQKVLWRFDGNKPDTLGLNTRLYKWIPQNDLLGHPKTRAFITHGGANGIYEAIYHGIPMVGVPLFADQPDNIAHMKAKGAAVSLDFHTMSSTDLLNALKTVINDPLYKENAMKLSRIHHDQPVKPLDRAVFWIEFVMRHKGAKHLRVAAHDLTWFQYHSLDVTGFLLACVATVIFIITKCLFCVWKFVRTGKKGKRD
Briefly: Glucuronidation of isobavachin by recombinant UGT2B4, enzyme kinetics. Format: in vitro ADME. The following applies: formation of G1; Michaelis–Menten model.

Another data set deals with T2, UGT1A7 (Homo sapiens, UniProt Q9HAW7).
T2 sequence (Q9HAW7 26-530): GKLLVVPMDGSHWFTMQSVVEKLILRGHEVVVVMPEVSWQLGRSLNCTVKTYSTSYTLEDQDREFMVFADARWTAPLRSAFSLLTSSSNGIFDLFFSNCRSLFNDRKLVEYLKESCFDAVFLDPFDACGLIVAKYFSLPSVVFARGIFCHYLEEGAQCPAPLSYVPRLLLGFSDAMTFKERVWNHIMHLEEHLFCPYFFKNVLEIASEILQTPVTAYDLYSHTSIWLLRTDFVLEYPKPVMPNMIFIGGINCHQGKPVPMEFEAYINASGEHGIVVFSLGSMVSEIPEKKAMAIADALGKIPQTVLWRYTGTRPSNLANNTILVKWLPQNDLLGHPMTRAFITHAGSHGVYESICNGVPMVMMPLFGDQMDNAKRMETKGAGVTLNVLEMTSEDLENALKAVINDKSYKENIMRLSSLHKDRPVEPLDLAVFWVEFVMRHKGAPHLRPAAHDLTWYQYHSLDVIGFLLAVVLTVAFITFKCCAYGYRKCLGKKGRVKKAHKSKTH
Briefly: Glucuronidation of isobavachin by recombinant UGT1A7, enzyme kinetics. Format: in vitro ADME. Conditions: formation of G1, substrate inhibition model.

A further data set deals with T3, CYP2B6 (Homo sapiens, UniProt P20813).
T3 sequence (P20813 1-491): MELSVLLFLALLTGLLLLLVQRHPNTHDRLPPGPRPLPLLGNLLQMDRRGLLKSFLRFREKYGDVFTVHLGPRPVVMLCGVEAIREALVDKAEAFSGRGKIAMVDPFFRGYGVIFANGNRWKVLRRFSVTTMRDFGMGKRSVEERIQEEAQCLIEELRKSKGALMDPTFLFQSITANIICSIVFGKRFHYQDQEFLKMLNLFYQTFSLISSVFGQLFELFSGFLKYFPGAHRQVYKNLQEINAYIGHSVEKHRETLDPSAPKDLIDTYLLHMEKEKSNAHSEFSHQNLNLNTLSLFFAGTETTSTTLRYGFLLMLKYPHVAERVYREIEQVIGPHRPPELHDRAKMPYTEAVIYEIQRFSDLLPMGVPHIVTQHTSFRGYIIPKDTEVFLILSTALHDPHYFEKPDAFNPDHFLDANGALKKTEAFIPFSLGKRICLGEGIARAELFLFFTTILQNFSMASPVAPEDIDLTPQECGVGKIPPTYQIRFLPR
Description: Inhibition of CYP2B6. Format: in vitro ADME.

A further data set has as its target T4, UGT1A1 (Homo sapiens, UniProt P22309).
T4 sequence (P22309 26-533): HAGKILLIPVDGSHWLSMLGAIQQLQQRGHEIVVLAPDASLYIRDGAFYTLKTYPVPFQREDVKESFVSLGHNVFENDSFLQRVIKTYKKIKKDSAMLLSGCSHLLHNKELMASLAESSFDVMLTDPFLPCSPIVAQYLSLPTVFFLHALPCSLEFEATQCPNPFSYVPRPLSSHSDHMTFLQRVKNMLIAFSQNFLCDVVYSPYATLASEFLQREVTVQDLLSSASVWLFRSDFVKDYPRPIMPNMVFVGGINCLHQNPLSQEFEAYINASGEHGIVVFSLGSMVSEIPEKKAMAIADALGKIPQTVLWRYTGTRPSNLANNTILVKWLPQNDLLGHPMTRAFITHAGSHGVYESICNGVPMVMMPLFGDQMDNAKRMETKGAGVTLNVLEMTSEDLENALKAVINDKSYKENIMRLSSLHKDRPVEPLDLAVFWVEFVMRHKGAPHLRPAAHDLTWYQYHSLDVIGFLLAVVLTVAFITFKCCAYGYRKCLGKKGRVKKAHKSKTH
Briefly: Glucuronidation of isobavachin by recombinant UGT1A1, enzyme kinetics. Conditions: formation of G1, substrate inhibition model. Format: in vitro ADME.

The next data set concerns the target T5, UGT1A9 (Homo sapiens, UniProt O60656).
T5 sequence (O60656 26-530): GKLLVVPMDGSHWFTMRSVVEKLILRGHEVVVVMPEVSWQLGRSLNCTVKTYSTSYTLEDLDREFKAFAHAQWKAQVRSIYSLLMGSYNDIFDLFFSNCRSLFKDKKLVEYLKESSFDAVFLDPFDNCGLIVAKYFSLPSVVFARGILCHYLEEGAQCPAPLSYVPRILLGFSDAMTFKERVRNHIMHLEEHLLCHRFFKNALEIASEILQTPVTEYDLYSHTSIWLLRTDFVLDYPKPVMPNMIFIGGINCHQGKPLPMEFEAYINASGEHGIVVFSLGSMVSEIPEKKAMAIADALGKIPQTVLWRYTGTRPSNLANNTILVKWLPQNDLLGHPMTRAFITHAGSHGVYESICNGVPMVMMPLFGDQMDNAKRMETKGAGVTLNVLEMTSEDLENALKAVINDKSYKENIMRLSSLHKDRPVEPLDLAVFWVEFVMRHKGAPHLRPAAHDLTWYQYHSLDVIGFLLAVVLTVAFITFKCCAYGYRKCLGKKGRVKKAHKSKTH
Briefly: Inhibition of UGT1A9. Type of data set: in vitro ADME.

Where [2] appears, read: based on the smallest AIC and SC values.

Several values for one entry are separate records, joined by “and”; a condition that tells them apart may be missing. Equal values may be shown once.

On to `CC(C)=CCc1c(O)ccc2c1O[C@H](c1ccc(O)cc1)CC2=O` [isobavachin], for which the “CLint (CLmax)” value was 59.81 μl/min per mg and 59.81 ± 21.18 μl/min per mg in data set [1] (formation of M1, substrate inhibition model); 5.53 ± 0.93 μl/min per mg in data set [1] (formation of M2, Michaelis–Menten model); 30.59 ± 3.28 μl/min per mg on UGT2B4; 109.18 ± 24.17 μl/min per mg on UGT1A7. The Vmax on UGT2B4 was 81.29 ± 2.05 pmol/min per mg; on UGT1A7, 3593.00 ± 487.20 pmol/min per mg; on UGT1A1, 7735.0 ± 1186.0 pmol/min per mg. For the same molecule, the Ki stood at 27540 ± 5390 nM on UGT1A7 (substrate inhibition constant); 350 ± 110 nM at CYP2B6 (substrate bupropion, competitive model (not selected)); 1460 ± 620 nM at CYP2B6 (substrate bupropion, mixed-type model (not selected)); 1930 ± 180 nM on CYP2B6 (substrate bupropion, non-competitive model (selected, smallest AIC and SC)); 40820 ± 9700 nM at UGT1A1 (substrate inhibition constant); 200 ± 30 nM on UGT1A9 (substrate propofol, competitive model (not selected)). Further, the Ki at UGT1A9 (substrate propofol, mixed-type model (not selected)) came to 430 ± 140 nM; on UGT1A9 (substrate propofol, non-competitive model (selected, smallest AIC and SC)), 440 ± 40 nM. The IC50 worked out at 5000 ± 480 nM against CYP2B6 and 1210 ± 300 nM against UGT1A9. The results for the residual activities on CYP2B6 (10 μM isobavachin) and at UGT1A9 (10 μM isobavachin) were 30.86 % of the negative control and 16.51 % of the negative control, respectively. Also, the Inhibition type result on CYP2B6 (setting [2]) and on UGT1A9 (setting [2]) was “non-competitive inhibition mode” in each case. The α on CYP2B6 (substrate bupropion, mixed-type model) is on record as 1.49 ± 0.92; on UGT1A9 (substrate propofol, mixed-type model) it was 1.05 ± 0.70.
